Experimental data published in patent US8791155B2, “Chroman derivatives” (Edison Pharmaceuticals, Inc., priority 2003, dated 2014).

Experiments:
[1] = system: release of the leukotriene LTB4 from MPRO cell line; assay: LTB4 assay (competitive ELISA); type: cell-based; conditions: Mus musculus; 1 μM calcium ionophore A23187, 1 hour; read-out: EC50, inhibition of LTB4 production
Text: This procedure was used for measuring the release of the leukotriene LTB4 from a neutrophil cell line using a competitive ELISA technique.
• MPRO cell line (ATCC, Catalog #CRL-11422) • Calciumionophore (A23187) (Sigma, Catalog #C7522) • Nordihydroguaiaretic acid (NDGA) (BioMol, Catalog #E1101-0001) • Retinoic Acid (all-trans) (ATRA) (Sigma, Catalog #95152) • Sterile, tissue-culture treated 96-well plates (Corning, Catalog #3614) Materials for LTB4 ELISA • Precoated (Mouse Anti-Rabbit IgG) EIA 96 Well Strip Plates (Cayman, Catalog #400004) • Leukotriene B4 AChE Tracer (Cayman Catalog #420110) • Leukotriene B4 EIA Antiserum (Cayman Catalog #420112) • Ellman's Reagent (Cayman Catalog #400050) • EIA Buffer Concentrate (10×) (Cayman Catalog #400060) • Wash Buffer Concentrate (400×) (Cayman Catalog #400062) • Plastic plate covers (Cayman Catalog #400012) Procedure
A mouse promyelocytic cell line (MPRO) was used in this assay. These cells are committed immature neutrophils that can be differentiated into mature neutrophils by treatment with 10 μM all-trans retinoic acid for 72 hours
Following 72 hours of differentiation, cells were stimulated with 1 μM of a calcium ionophore (A23187) in the presence or absence of test compound or vehicle for 1 hour at 370 C. After this time, supernatant was removed from the cells and the LTB4 levels were determined following manufacturer's instructions, using a Leukotriene B4 EIA kit from Cayman (Cat #520111)
The negative controls were media samples from differentiated but unstimulated cells.
The compounds were screened at 5 concentrations in quadruplicate starting at 10 μM

[2] = target: T1, human recombinant 5-lipoxygenase (Homo sapiens, UniProt P09917); assay: 5-Lipoxygenase enzyme assay; type: biochemical; conditions: 70 μM arachidonic acid, pH 7.4, 10 minute incubation; read-out: IC50, inhibition of 5-Lipoxygenase
T1 construct: purchased Cayman 60402
T1 sequence (P09917 1-674): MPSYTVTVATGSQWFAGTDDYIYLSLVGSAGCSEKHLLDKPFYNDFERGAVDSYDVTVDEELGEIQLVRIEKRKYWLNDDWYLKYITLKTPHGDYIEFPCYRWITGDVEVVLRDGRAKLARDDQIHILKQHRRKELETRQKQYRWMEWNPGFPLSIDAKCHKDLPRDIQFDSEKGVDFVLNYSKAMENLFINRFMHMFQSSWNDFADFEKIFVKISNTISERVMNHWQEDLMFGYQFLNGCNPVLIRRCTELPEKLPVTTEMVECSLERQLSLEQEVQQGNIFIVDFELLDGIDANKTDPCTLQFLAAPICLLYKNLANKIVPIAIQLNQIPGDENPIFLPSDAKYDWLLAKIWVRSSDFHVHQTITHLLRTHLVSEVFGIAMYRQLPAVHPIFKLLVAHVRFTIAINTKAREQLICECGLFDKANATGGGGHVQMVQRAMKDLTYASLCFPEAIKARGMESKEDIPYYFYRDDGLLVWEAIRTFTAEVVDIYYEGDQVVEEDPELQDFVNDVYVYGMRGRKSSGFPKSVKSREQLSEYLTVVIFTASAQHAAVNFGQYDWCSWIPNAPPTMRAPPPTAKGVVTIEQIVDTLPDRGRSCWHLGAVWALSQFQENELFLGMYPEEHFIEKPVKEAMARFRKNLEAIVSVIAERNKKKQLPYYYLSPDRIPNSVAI
Text: (§1) In vitro evaluation of the ability of a composition to inhibit the enzymes 5-lipoxygenase, 15-lipoxygenase, or 12/15 lipoxygenase as described in Walidge, N. B. et al Anal. Biochem., 231: 354-358 (1995) using a high throughput colorimetric method; as well as in vitro evaluation of inhibiting LTB4 is described in Examples.
This procedure was used for measuring the enzymatic activity of human recombinant 5-lipoxygenase using a colorimetric method based on the ferric oxidation of xylenol orange.
(§2) • 96 well flat bottom microfilter plates (VWR, Catalog #62402-933 9295) • Lipoxygenase screening assay buffer (Cayman, Catalog #760710) • Human recombinant 5-lipoxygenase (Cayman, Catalog #60402) • Arachidonic Acid (Sigma, Catalog #A3555) • Xylenol orange tetrasodium salt (Aldrich, Catalog #227854) • Iron (II) sulfate heptahydrate (Sigma, Catalog #F7002) • Sulfuric acid (95-98%) [18M]—Methanol Procedure
(§3) Human recombinant 5-lipoxygenase (Cayman Cat #60402) was used in this assay. The test compound and/or vehicle was added to 0.51-1 5-lipoxygenase in 50 mM Tris-HCl buffer, pH 7.4. The reaction was initiated by addition of 70 μM arachidonic acid in Tris-HCl buffer, pH 7.4, and terminated after a 10 minute incubation at room temperature by addition of FOX reagent (25 mM sulphuric acid, 100 μM xylenol orange, 100 μM iron (II) sulphate, methanol:water 9:1). The yellow color of acidified xylenol orange was converted to a blue color by the lipid hydroperoxide-mediated oxidation of Fe 2+ ions and the interaction of the resulting Fe 3+ ions with the dye. The complex was allowed to form during a 1 hour incubation at room temperature with shaking. Absorbance of the Fe 3+ complex was then measured at […] using a spectrophotometer.
(§4) Negative controls contained enzyme during the incubation step but substrate was not added until after the FOX reagent.
Compounds were screened at 5 concentrations in triplicate starting at 10 μM

[3] = target: T2, porcine leukocyte 12/15-lipoxygenase (Sus scrofa, UniProt P16469); assay: 12/15-Lipoxygenase enzyme assay; type: biochemical; conditions: 70 μM arachidonic acid, pH 7.4, 10 minute incubation; read-out: IC50, inhibition of 12/15-Lipoxygenase
T2 construct: purchased Cayman 60300
T2 sequence (P16469 1-663): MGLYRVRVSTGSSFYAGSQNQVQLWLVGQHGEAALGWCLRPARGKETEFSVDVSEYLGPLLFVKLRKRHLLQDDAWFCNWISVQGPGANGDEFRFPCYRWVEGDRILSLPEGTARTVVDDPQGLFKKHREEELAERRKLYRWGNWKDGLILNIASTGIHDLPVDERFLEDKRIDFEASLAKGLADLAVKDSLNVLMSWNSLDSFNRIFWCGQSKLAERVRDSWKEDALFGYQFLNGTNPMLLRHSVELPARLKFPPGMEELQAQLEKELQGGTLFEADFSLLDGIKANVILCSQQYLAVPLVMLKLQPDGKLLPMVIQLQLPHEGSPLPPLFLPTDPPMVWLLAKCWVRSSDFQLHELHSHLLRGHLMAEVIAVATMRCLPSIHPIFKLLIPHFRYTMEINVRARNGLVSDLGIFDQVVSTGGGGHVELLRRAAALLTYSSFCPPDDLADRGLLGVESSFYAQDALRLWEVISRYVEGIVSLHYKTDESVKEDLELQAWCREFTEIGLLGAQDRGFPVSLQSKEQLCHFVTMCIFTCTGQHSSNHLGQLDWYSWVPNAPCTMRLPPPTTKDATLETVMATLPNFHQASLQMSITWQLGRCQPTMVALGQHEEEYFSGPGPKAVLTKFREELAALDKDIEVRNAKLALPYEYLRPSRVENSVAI
Text: as §1
This procedure was used for measuring the enzymatic activity of porcine leukocyte 12/15-lipoxygenase using a colorimetric method based on the ferric oxidation of xylenol orange.
as §2, with “Porcine leukocyte 12/15-lipoxygenase” for “Human recombinant 5-lipoxygenase”, “#60300)” for “#60402)”, “[18M] • Methanol” for “[18M]—Methanol”
as §3, with “Porcine Leukocyte 12/15-lipoxygenase” for “Human recombinant 5-lipoxygenase”, “#60300)” for “#60402)”, “Test” for “The test”, “1.3 U 12/15-lipoxygenase” for “0.51-1 5-lipoxygenase”
as §4
Compounds are screened at 5 concentrations in triplicate starting at 10 μM

[4] = system: dopaminergic neuronal cell line; assay: High glutamate-induced oxidative stress assay (HGOS); type: cell-based; conditions: Mus musculus; 30 mM glutamate, 16 hrs; read-out: EC50, protection against HGOS cell injury and cell death
Text: Protection against redox stress can be evaluated in cell culture using high glutamate induced oxidative stress (HGOS) in mouse dopaminergic cell lines. The cytotoxic effect of glutamate is not due to excitotoxicity, as this cell line is devoid of inotropic glutamate receptors. Rather, the glutamate-induced toxicity of dopaminergic cells is associated with an inhibition of cystine transport which subsequently leads to depletion of intracellular glutathione (GSH) levels (Murphy T. H., et al. Neuron 2, 1547-1558, 1989), activation of neuronal 12-lipoxygenase (Li, Y. et al., Neuron 19, 453-463, 1997), increased ROS production (Tan S. et al., J. Cell Biol. 141, 1423-1432, 1998) and elevated intracellular Cat^2+ (Li, Y. et al., see supra). Some molecules were measured for their ability to protect cells against glutamate-induced stress and the assay is detailed in Examples.
This procedure was used to induce high glutamate-induced oxidative stress (HGOS) in a dopaminergic neuronal cell line. Using this assay the potency and efficacy of test articles against HGOS neuronal cell injury and cell death was established in a high throughput manner.
• Dopaminergic neuronal cell lines • DMEM-No Glucose (Life Technologies Cat #11966-025) • L-glutamine (Life Technologies Cat #25030-081) • L-glutamic acid, monosodium salt (Sigma Cat #G5889) • D-glucose (Sigma Cat #G-6151) • 10×HBSS buffer (pH 7.4) (950 ml Pyrogen-free water, 2.44 g/L MgCl2.6H20, 3.73 g/L KCl, 59.58 g/L Hepes, 58.44 g/L NaCl, 1.36 g/L KH2PO4, 1.91 g/L CaCl2.2H2O and pH to […] with HCl) • Cell Tracker Green fluorescent dye (Molecular Probes, Cat #2925). Prepare a 5NM solution in pre-warmed HBSS just prior to use. • Sterile 96-well plates precoated with poly-D-lysine (Corning Catalog #3665) • 96-well deep well mother plate, DyNA Block 1000 (VWR Catalog #40002-008) Neuronal Cells
The cells were seeded into 96-well plates at a density of 2000 per well and left to grow for 72 hours in a 33° C. incubator with 5% CO2 in air atmosphere. The passage number of the cells for each assay experiment were no later than p11 in order to minimize experimental variation.
All compounds were dissolved in DMEM-No Glu containing 1 mM glucose, 30 mM glutamate and 1× Pen/Strep. DMEM-No Glu with 1 mM glucose and 1× P/S was used as the negative control, DMEM-No Glucose with 1 mM glucose, […] glutamate was used as a positive control and 100 NM Glutathione was added to the positive control as a standard. All of the procedures for this involving the making and dilution of compounds were performed using aseptic conditions and with minimal light.
The plates were removed from the incubator and examined under the microscope for morphological appearance and density. Using an aseptic technique and an 8-channel aspirator the media was carefully removed from the cells and replaced with 200 μI of 1×HBSS. This was done as quickly as possible to prevent the cells drying out. The plates were then placed in the humidified 37° C. incubators of the Biomek 2000 Side Loader. Four plates were washed at a time so as to minimize the time that the cells were sitting in 1×HBSS prior to addition of the compound test solution. Experimental Setup
The Beckman Biomek workstations were used to load the compounds and controls from the mother plates onto the cell plates that were prewashed with HBSS under sterile conditions. The plates were incubated in the upper HTS incubator at 37° C. in 5% CO2 for exactly 16 hrs. The following day, using the Beckman Biomek workstations, the plates were removed from the incubator. Using Cell Tracker Addition, the compounds were removed from the plates, washed once with […] of pre-warmed 1×HBSS and then 100 μL of 5 μM Cell Tracker Green was added to each well. The plates were incubated at 37° C. for 30 min to allow the dye to enter the cell and be cleaved by the esterases. […]

| Compound | EC50 [1] | IC50 [2] | IC50 [3] | EC50 [4] |
| --- | --- | --- | --- | --- |
| Cc1cc(C2(C)CCc3c(C)c(O)c(C)c(C)c3O2)c(C)s1 (stereo not shown) [2-(2,5-Dimethyl-thiophen-3-yl)-2,5,7,8-tetramethyl-chroman-6-ol] | < 1000 nM | < 1000 nM | < 1000 nM |  |
| Cc1c(C)c2c(c(-c3cccc([N+](=O)[O-])c3)c1O)CCC(C)(C)O2 [2,2,7,8-Tetramethyl-5-(3-nitro-phenyl)-chroman-6-ol] | < 1000 nM |  |  |  |
| Cc1c(C)c2c(c(C)c1O)CCC(C)(c1cccs1)O2 (stereo not shown) [2,5,7,8-Tetramethyl-2-thiophen-2-yl-chroman-6-ol] | < 1000 nM | < 1000 nM | < 1000 nM |  |
| Cc1c(C)c2c(c(-c3ccco3)c1O)CCC(C)(C)O2 [5-Furan-2-yl-2,2,7,8-tetramethyl-chroman-6-ol] | < 1000 nM | < 1000 nM | < 1000 nM |  |
| Cc1c(C)c2c(c(-c3cccnc3)c1O)CCC(C)(C)O2 [2,2,7,8-Tetramethyl-5-pyridin-3-yl-chroman-6-ol] | < 1000 nM |  |  | < 5000 nM |
| Cc1cc(C2(C)CCc3cc(O)c(C)c(C)c3O2)c(C)s1 (stereo not shown) [2-(2,5-Dimethyl-thiophen-3-yl)-2,7,8-trimethyl-chroman-6-ol] | < 1000 nM | < 1000 nM |  |  |
| Cc1c(C)c2c(c(-c3ccc(C(=O)O)cc3)c1O)CCC(C)(C)O2 [4-(6-Hydroxy-2,2,7,8-tetramethyl-chroman-5-yl)-benzoic acid] | < 1000 nM |  |  | < 5000 nM |
